The values below come from patent US10597696B2, “Detection of Niemann-Pick disease comprising detection of lysozyme and cathepsins” (UNIVERSITY OF NOTRE DAME DU LAC, priority 2013, dated 2020).

In test [1] the test system is NPC patients. The experiment in a line: Plasma cathepsin S level in Miglustat-treated NPC patients. In kind it is in vivo, human. Conditions: patients treated with Miglustat vs untreated NPC patients. From the text:
(§1) A major hurdle is that inflammatory products of cerebral disease are not easily detected in blood. Inflammation in multiple organs and heterogeneity in disease present additional challenges in distinguishing the extent to which a blood based marker reflects disease in brain or other afflicted organs. We utilized murine models of the monogenetic disorder Niemann Pick Type C (NPC) that present aggressive forms of cerebral and liver inflammatory disease to identify secretory biomarkers for neuroinflammation. […] We utilized 2-hydroxypropyl-beta-cyclodextrin (HPβCD; an emerging therapeutic) administered intraperitoneally in mice, which abrogates inflammatory pathology in the liver but has limited effect on the brain. By analyzing the corresponding effects on inflammatory plasma proteins, we identified cathepsin S as a lead indicator of liver disease. In contrast lysozyme was a marker of both brain and liver disease. The study was extended on human samples. The level of lysozyme and cathepsin S were determined in the plasma samples from healthy individuals (age and gender matched), untreated NPC patients and Miglustat (also known as Zavesca) treated NPC patients. […] The plasma concentration of these two markers in untreated and Miglustat treated NPC samples when analyzed together yielded a composite score to assess extent of neurodegeneration. […]

Test [2] relates to NPC patients. The experiment in a line: Plasma lysozyme level in Miglustat-treated NPC patients. In kind it is in vivo, human. As to conditions: Miglustat-treated NPC samples vs untreated NPC and healthy controls.
Description: as §1

Turning to `CCCCN1C[C@H](O)[C@@H](O)[C@H](O)[C@H]1CO` [Miglustat], the “plasma cathepsin S” value in the test with NPC patients [1] is given as “further elevated”. In the test on NPC patients [2], the plasma lysozyme level entry was “reduced compared to untreated NPC patients and were equivalent to healthy controls”.
